Results from paper PMC6532548, “Embelin, a Potent Molecule for Alzheimer's Disease: A Proof of Concept From Blood-Brain Barrier Permeability, Acetylcholinesterase Inhibition and Molecular Docking Studies” (Frontiers in Neuroscience, 2019).

Target: acetylcholinesterase (AChE) (Electrophorus electricus, UniProt O42275)
Experiment: Ellman's assay with electric eel AChE, acetylthiocholine iodide substrate
Assay type: biochemical

Chain of acetylcholinesterase (AChE) (O42275 24-633): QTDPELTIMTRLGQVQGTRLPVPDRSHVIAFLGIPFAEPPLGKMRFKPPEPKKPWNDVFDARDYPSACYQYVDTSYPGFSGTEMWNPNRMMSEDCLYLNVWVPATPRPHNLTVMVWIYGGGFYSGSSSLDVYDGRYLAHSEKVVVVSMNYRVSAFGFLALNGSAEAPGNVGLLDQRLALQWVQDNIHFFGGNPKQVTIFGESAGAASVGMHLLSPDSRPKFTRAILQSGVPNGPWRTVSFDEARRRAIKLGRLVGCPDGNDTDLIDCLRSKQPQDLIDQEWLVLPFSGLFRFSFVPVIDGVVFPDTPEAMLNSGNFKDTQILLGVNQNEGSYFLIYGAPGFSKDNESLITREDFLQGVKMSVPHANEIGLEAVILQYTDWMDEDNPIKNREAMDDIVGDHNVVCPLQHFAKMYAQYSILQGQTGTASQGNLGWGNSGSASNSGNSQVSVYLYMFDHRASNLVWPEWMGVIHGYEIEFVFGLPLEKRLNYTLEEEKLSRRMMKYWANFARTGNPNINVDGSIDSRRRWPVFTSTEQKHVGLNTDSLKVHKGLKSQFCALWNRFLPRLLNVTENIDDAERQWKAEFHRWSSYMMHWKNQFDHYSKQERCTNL

Question: CCCCCCCCCCCC1=C(O)C(=O)C=C(O)C1=O [embelin, 2,5-dihydroxy-3-undecyl-1,4-benzoquinone] was tested. Which IC50 did it give?
Answer: The IC50 was 169 µM.
